Results published in patent US11672766B2, “Therapeutic cationic peptides and unimolecular nanoparticles for efficient delivery thereof” (Wisconsin Alumni Research Foundation, priority 2017, dated 2023).
Where no end group is shown, it is not given here. [ ]: non-standard residue; d: D form. Arg(Me2a) = CN(C)C(=N)NCCC[C@H](N)C(=O)O

How the values were obtained:
[1] = target: T1, histone H3 methylation by CARM1 (Homo sapiens, UniProt Q86X55); experiment: In vitro methylation assay of control substrate histone H3 by CARM1; format: biochemical; conditions: FBP 100 μM or TEPP-46 1 μM
T1 construct: HaloTag (cleaved yes); made in house; host or cells: HEK293T (transient transfection)
T1 sequence (Q86X55 1-608): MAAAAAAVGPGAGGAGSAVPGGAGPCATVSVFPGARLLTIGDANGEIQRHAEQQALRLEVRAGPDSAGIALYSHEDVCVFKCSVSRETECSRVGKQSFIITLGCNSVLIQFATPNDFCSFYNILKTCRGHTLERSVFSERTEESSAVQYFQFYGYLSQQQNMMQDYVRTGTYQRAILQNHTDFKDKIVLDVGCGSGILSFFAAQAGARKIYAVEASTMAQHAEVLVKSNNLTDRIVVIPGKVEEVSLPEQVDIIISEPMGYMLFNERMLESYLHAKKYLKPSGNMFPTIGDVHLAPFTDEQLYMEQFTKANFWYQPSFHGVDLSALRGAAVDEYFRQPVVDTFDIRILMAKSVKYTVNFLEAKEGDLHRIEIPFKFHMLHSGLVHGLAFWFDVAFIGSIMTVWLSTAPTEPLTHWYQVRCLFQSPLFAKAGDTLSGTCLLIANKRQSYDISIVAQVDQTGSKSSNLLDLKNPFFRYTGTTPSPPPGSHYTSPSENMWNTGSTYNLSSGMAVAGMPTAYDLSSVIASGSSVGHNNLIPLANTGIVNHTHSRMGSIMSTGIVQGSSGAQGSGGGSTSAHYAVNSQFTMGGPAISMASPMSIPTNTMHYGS
Protocol: (§1) In vitro methylation assay was performed as previously described (Wang et al., 2014). Purified histones or purified substrate proteins were mixed with the protein arginine methyltransferases (PRMTs) in the presence of ^3H-SAM. [^3H]-labeled substrates were resolved by SDS-PAGE and detected by autoradiography.

[2] = target: T2, CARM1-mediated methylation of PKM2 (Homo sapiens, UniProt Q86X55); experiment: In vitro methylation assay of PKM2 by CARM1 (3H-SAM, autoradiography); format: biochemical; conditions: for PKM2 methylation by CARM1: FBP 100 μM or TEPP-46 1 μM; for CARM1-mediated methylation of PKM2: free peptide or peptide encapsulated in UMNP
T2 construct: HaloTag (cleaved yes); made in house; host or cells: CARM1: HEK293T (transient)
T2 sequence (Q86X55 1-608): T1 sequence (Q86X55 1-608)
Protocol: as §1
Human PRMT1-8 cDNAs were cloned into pFN21K HaloTag CMV Flexi Vector (Promega) (Wang et al., 2014). These plasmids were transiently transfected into HEK293T cells for 36 hours. The cells were harvested in binding buffer (HEPES 50 mM, NaCl 150 mM, NP40 0.005%, 0.5 mM EDTA, pH 7.5) and sonicated at 35% power (amplitude) with 10 s on, 30 s off, 4-6 cycles on ice, and then centrifuged and collected the supernatant. The supernatant was incubated with HaloLink resin (Promega) overnight at 4° C. The beads were washed with binding buffer twice and then incubated with 1M urea in binding buffer for 20 min at room temperature. After washing the beads with binding buffer twice, the proteins were eluted with 20 μg/mL TEV in cleavage buffer (DTT 1 mM in binding buffer). For purification of Flag-tagged proteins, the plasmids were transiently transfected into HEK293T cells for 36 hours. The cells were harvested in lysis buffer on ice for 30 min, and then centrifuged and collected the supernatant. Flag M2 Affinity Gel was added into the supernatant and incubated for 2 hours, and then the Gel was washed with PBS four times. The proteins were eluted by 150 μg/mL 3× Flag peptide in 0.5 M Tris HCl and 1M NaCl pH 7.5. For His-tagged or GST-tagged proteins purification, PKM1 and PKM2 cDNA were inserted pET-21a (+) or pGEX-2T plasmid. The plasmids were then transfected into E. coli BL-21 competent cells. Protein expression was induced by the presence of 0.5 mM IPTG overnight at 20° C. After centrifugation, pellet was resuspended in sonication buffer (1% Triton X-100, 1 mM EDTA, 1 mM DTT in PBS) and sonicated at 50% power (amplitude) with 30 s on, 30 s off, 10 cycles on ice or until the suspension became clear. After centrifugation, the supernatant was incubated with Ni-NTA Agarose or Glutathione Agarose Resin for 2 hours at room temperature. For His-tagged proteins, Beads were washed with PBS twice, then washed with 10 mM imidazole in elution buffer (1% Triton X-100, 0.1% glycerol in PBS) once. The His-tagged proteins were eluted with 250 mM imidazole. For GST-tagged proteins, beads were washed with PBS four times and eluted with glutathione elution buffer (50 mM Glutathione, 50 mM Tris HCl, pH 8.0, 100 mM NaCl, and 1 mM EDTA). The eluted proteins were dialyzed with PBS containing 0.1% glycerol.

MCF7 cells [3] = experiment: Lactate production normalized to cell numbers; format: cell-based; conditions: TEPP-46 vs DMSO, DCA treated
IP3R3 = experiment: Western blot analysis of IP3R3 protein levels in MCF7 cells; format: cell-based; conditions: parental MCF7, TEPP-46 vs DMSO
methyl-PKM2 = experiment: Western blot analysis of methyl-PKM2 in MCF7 cells; format: cell-based; conditions: TEPP-46 vs DMSO
Protocol: Methyl-PKM2 specific anti-peptide antibody was prepared by Genemed Synthesis Inc., TX, using standard methods of peptide synthesis. The KLH-conjugated PKM2 peptide RYR(as)PR(as)[…] (SEQ ID NO: 58), with R445 and R447 asymmetrically dimethylated was synthesized. The peptide corresponding to human PKM2 amino acids 443-454, was used to immunize rabbits. To purify the di-me-PKM2 specific antibody, 10 mg dimethyl peptide (column A) and 10 mg control peptide (non-methyl) (column B) were coupled separately to cyanogen bromide activated agarose beads. 100 ml of antisera was then incubated with the peptide-agarose column A. The unbound antiserum was washed with 1×PBS buffer. After several washes, the antibody was eluted with 0.1 M glycine, pH 2.5; neutralized with 1M […] Tris, pH 8.0. The antibody was stabilized with 0.1% BSA [Elution A]. Elution A was then incubated with column B and then same procedure was followed for elution. The flow through from column B was the dimethyl-specific antibody (methyl-PKM2). The antisera and purified antibody were then tested by enzyme-linked immunosorbent assay (ELISA).

MCF7 cells [4] = experiment: Oxygen consumption rate (OCR), Seahorse XF96; format: cell-based; conditions: TEPP-46 vs DMSO, DCA treated
Protocol: (§2) The OCR was measured in an XF96 extracellular analyzer (Seahorse Bioscience). 2×10^4 cells per well were seeded into the 96-well plate and incubated in DMEM media with 10% FBS at 37° C. overnight. Next day, the media was changed to analysis media containing 10 mM glucose. The cells were incubated in a CO2-free incubator at 37° C. for 1 hour. Cells were sequentially exposed to oligomycin ([…] FCCP (0.5 μM) and rotenone (0.5 μM). Each point in traces represent the average of measurement from six different wells.

MDA-MB-231 cells [5] = experiment: Lactate production normalized to cell numbers; format: cell-based, human; conditions: TEPP-46 vs DMSO, DCA treated
MDA-MB-231 cells [6] = experiment: Oxygen consumption rate (OCR), Seahorse XF96; format: cell-based, human; conditions: TEPP-46 vs DMSO, DCA treated
Protocol: as §2

[7] = system: MDA-MB-231 cells (parental, PKM2 KO, PKM2wt/shPKM1, PKM2mut/shPKM1); experiment: Cell death by PI staining after IP3Rs inhibition; format: cell-based, human; conditions: MDA-MB-231 lines, 5 μM XeB, 24 hours
Protocol: (§3) Cell apoptosis and death assays were based on the previously described method. See Cardenas, C., et al., “Selective Vulnerability of Cancer Cells by Inhibition of Ca(2+) Transfer from Endoplasmic Reticulum to Mitochondria,” Cell Rep 14, 2313-2324 (2016). Briefly, cell apoptosis was determined by annexin V/APC and propidium iodide (PI) staining. Cell death was determined by PI staining using flow cytometry.

[8] = system: MCF7 cells (parental, PKM2 KO, PKM2wt/shPKM1, PKM2mut/shPKM1); experiment: Cell death by PI staining after IP3Rs inhibition; format: cell-based; conditions: MCF7 lines, 3.5 μM XeB, 24 hours
Protocol: as §3

[9] = system: MCF7 PKM2mut/shPKM1, MDA-MB-231 PKM2mut/shPKM1, MCF7 CARM1 KO cells; experiment: MTT cell growth in ROS highly producing cells; format: cell-based; conditions: PKM2 KO, PKM2 KO expressing PKM2mut and CARM1 KO cells
Protocol: (§4) For quantitative proliferation assays, 1000 cells per well were seeded onto 96-well plates. 3-(4,5-dimethylthiazol-2-yl)-2,5-diphenyltetrazolium bromide (MTT) solution (20 μL per well, 4 mg/mL) was added into the wells and incubated 4 hours. After discarding the supernatant, 200 μL DMSO was added and the absorbance value (optical density) was measured at 490 nm on a Victor X5 microplate reader (Perkin Elmer, Waltham, Mass.). In the next 3 days, the absorbance value was measured every day. For 5-Ethynyl-2′-deoxyuridine (EdU) incorporation assay, 3×10^5 cells were seeded into 6-well plate and incubated 10 μM EdU for 1 hour, followed by the procedures described in the Click-iT® EdU cytometry assay kit according to the manufacturer's instructions. Cells were then analyzed on BD LSRII. For clonogenicity assay, 1000 viable transfected cells were placed in six-well plates and maintained in complete medium for 2 weeks. Colonies were washed with PBS and fixed with 3.7% formaldehyde for 15 min at room temperature, and then stained for 20 min with 0.05% crystal violet.

[10] = system: MDA-MB-231 PKM2mut/shPKM1 cells; experiment: Cell migration of ROS highly producing cells; format: cell-based, human
Protocol: (§5) Cell migration assay was performed as previously described (Wang et al., 2014) using 8.0 μm pore size Transwell inserts (Costar Corp., Cambridge, Mass.). Briefly, 1×10^5 cells in 100 μL serum free media were added into the upper chamber, 500 μL culture media with 20% FBS was in the lower well. After 12 hours culture, removed the cells on the upper surface of the membrane and fixed the migrant cells attached to the lower surface with 3.7% formaldehyde in culture media at 37° C. for 15 min, and then stained for 20 min with 0.05% crystal violet.

MCF7 cells [11] = experiment: MTT cell proliferation assay; format: cell-based; conditions: peptides delivered by UMNP (FIG. 14E)
Protocol: as §4

MDA-MB-231 cells [12] = experiment: Transwell cell migration assay; format: cell-based, human; conditions: peptides delivered by UMNP (FIG. 14F)
Protocol: as §5

| PKM2 methylation by CARM1 [2] | Compound | histone H3 methylation by CARM1 [1] | proliferation of MCF7 cells (MTT) (MCF7 cells [11]) | CARM1-mediated methylation of PKM2 [2] | migration of MDA-MB-231 cells (transwell) (MDA-MB-231 cells [12]) | other results |
| --- | --- | --- | --- | --- | --- | --- |
| blockage of PKM2 methylation by CARM1 | O=P(O)(O)OC[C@H]1O[C@](O)(COP(=O)(O)O)[C@@H](O)[C@@H]1O [FBP] | neither TEPP-46 nor FBP treatment affected histone H3 methylation by CARM1 |  |  |  |  |
| blockage of PKM2 methylation by CARM1 | Cn1c2cc([S+](C)[O-])sc2c2cnn(Cc3cccc(N)c3)c(=O)c21 (centres unmarked) [TEPP-46] | neither TEPP-46 nor FBP treatment affected histone H3 methylation by CARM1 |  |  |  | lactate production (MCF7 cells [3]): decreasing lactate production; IP3R3 expression (IP3R3): elevated IP3R3 expression; methyl-PKM2 level in cells (methyl-PKM2): blocking its methylation; OCR (MCF7 cells [4]): significantly increased OCR; lactate production (MDA-MB-231 cells [5]): decreasing lactate production; OCR (MDA-MB-231 cells [6]): significantly increased OCR |
|  | C[C@@H]1CN2CCC[C@H]3CCCCCC[C@H]4CCN5CCC[C@@](O)(CCCCCC[C@@H]1O[C@H]32)[C@H]5O4 [XeB, Xestospongin B] |  |  |  |  | cell death (vulnerability to IP3Rs inhibition) [7]: PKM2 KO or PKM2^mut cells are more vulnerable to XeB than parental and PKM2^wt cells; cell death (vulnerability to IP3Rs inhibition) [8]: PKM2 KO or PKM2^mut cells are more vulnerable to XeB than parental and PKM2^wt cells |
|  | CC1(C)CC(NC(=O)C[P+](c2ccccc2)(c2ccccc2)c2ccccc2)CC(C)(C)N1[O] [mitTEMPO] |  |  |  |  | cell proliferation [9]: did not alter cell proliferation and migration; cell migration [10]: did not alter cell proliferation and migration |
|  | RYRPRAPIIAVT [non-methyl-peptide] |  | inhibited proliferation of the MCF7 cells | abrogated CARM1-mediated methylation of PKM2 | inhibited proliferation of the MCF7 cells (FIG. 14E) and migration of MDA-MB-231 cells |  |
|  | methyl-peptide: negative control: corresponding peptide with R445 and R447 asymmetrically di-methylated (RY[Arg(Me2a)]P[Arg(Me2a)]APIIAVT; also: R445 and R447 asymmetrically di-methylated) |  | but not methyl-peptide, inhibited proliferation of the MCF7 cells | but not the control methyl-peptide, abrogated CARM1-mediated methylation of PKM2 | but not methyl-peptide, inhibited proliferation of the MCF7 cells (FIG. 14E) and migration of MDA-MB-231 cells |  |
